Measurements from patent US6900338B1, “Scavenger compounds” (Yissum Research Development Company of the Hebrew …, priority 1998, dated 2005).

Key:
[1] = tested on: vascular (aortic) guanylyl cyclase activity; assay: Prevention of nitrate tolerance: aortic cGMP after continuous NTG infusion, with or without the compounds; assay type: in vivo, rat; details: for tolerance development to NTG / NO-donors (result in words): co-administration with nitrates
Method: (§1) • a) Acute effects: Rats (Spargue-Dawely) weighing 300-400 g were treated with an intravenous (i.v.) bolus dose of 2 mg nitroglycerin (NTG) before and after pre-treatment with the compounds (50 mg/kg) administered intraperitoneally. Compounds 1 and 2 from FIG. 1, compounds 9 and 10 from FIG. 2, compounds 17 and 18 from FIG. 3, compounds 25 a nd 26 from FIG. 4 were dissolved in a mixture of ethanol:propylene glycol:water (1:1:1) and administered in 1 ml intraperitoneally one hour before NTG administration. One minute after the NTG administration, the rats were sacrificed by decapitation and the aorta was removed quickly, immersed in a phosphate buffer solution containing 20 mM EDTA and immediately frozen in liquid nitrogen add stored at −70° until analyzed. Next day, the tissue were analyzed for their cGMP content. After thawing, tissue were weighed and homogenized in EDTA-phosphate buffer, centrifuged and the super collected into another tube. The pellet was washed with 1 ml buffer, vortex-mixed, centrifuged and the supernatant added to the second tube. 2 ml of acetonitrile were added to the tube containing the combined extracts and the tube vortex-mixed, centrifuged and the supernatant collected to another clean tube. The aqueous-acetonitrile solution in this latter tube was evaporated to dryness and the reside dissolved in assay buffer. The cGMP content of the solution was determined using a radioimmunoassay (RIA-Amersham) as previously reported by us.
Similar significant increases were also obtained when pre-treatment was performed with other compounds (see above). • b) Prevention: Rat were administered a continuos infusion of NTG known to induce tolerance with or without concomitant administration of the compounds (the same tested for the acute effects). The compounds were administered either in continuos i.v. infusion or intraperitoneally in 4 separated doses (q 6 hours). The effects on vascular (aortic) guanylyl cyclase activity was then evaluated as described above for control rats.

[2] = tested on: tissue guanylyl cyclase response to nitrates (aortic cGMP); assay: Acute effects: aortic cGMP after NTG bolus, with or without pre-treatment with the compounds; assay type: in vivo, rat
Method: as §1, with “The aqueous-acetonitrile solution in this latter tube was evaporated to dryness and the reside dissolved in assay buffer.” left out, “us. […]” for “us.”

Molecule | tolerance development to NTG / NO-donors (result in words) [1] | cGMP ([2]; NTG alone, i.v. bolus 2 mg, aorta removed one minute after NTG) | cGMP ([1]; NTG-pretreatment: continuous NTG infusion known to induce tolerance, no compound, aorta) | tissue guanylyl cyclase response to nitrates (result in words) ([2]; pre-treatment or co-administration with nitrate / NO donor)
lipoyl lipoate | prevents/retards tolerance development |  |  | 
O=[N+]([O-])OCC(CO[N+](=O)[O-])O[N+](=O)[O-] [NTG, nitroglycerin] |  | 175 ± 13 pmol/g tissue | 64 ± 9 pmol/g tissue | 
O=C(O)CCCCC1CCSS1 (centres unmarked) [LA, 1,2-dithiolane-3-valeric acid] | retards tolerance development |  |  | enhances its activity
